# Source: US12203941B2, “Methods and compositions for diagnosis and prognosis of renal injury and renal failure” (ASTUTE MEDICAL, INC., priority 2013, dated 2025)
# Read-outs that look alike come from different tables or passages of the source.
# What was measured:
# [1] = tested on: critically ill patients with either stage I or II Acute Kidney Injury Network (AKIN) criteria; settings: for Urine volume, Hour 1: Hour 1 after FST; for Urine volume, Hour 1 / Urine volume, Hour 2 / Urine volume, Hour 3 / Urine volume, Hour 4 / Urine volume, Hour 5 / Urine volume, Hour 6: mean (s.e.); for Urine volume, Hour 2: Hour 2 after FST; for Urine volume, Hour 3: Hour 3 after FST; for Urine volume, Hour 4: Hour 4 after FST; for Urine volume, Hour 5: Hour 5 after FST; for Urine volume, Hour 6: Hour 6 after FST; for Tolerability / adverse events attributable to the FST: critically ill patients with AKI, well-resuscitated, iv furosemide 1.0 or 1.5 mg/kg, urine output replaced with isotonic fluids when appropriate
# Text: Replacement fluid was not protocolized in this group of subjects. Demographic, clinical data, urine sediment scores, and outcome data were abstracted from the case report forms.
# Prior to FST urine was collected. […] In order to minimize the risk of hypovolemia, urine output was replaced ml for ml each hour with either Ringers lactate or normal saline for six hours after the FST. The treating team could elect not to replace the volume if net volume loss was considered clinically desirable.
# Urine output was measured hourly for six hours and in total for 24 hours. […] Patients were followed for 14 days or hospital discharge, whichever occurred first. Fractional excretion of sodium was calculated as described in Bagshaw and colleagues. MDRD equation was used to calculate the eGFR as described in Levey and colleagues. Cardiovascular SOFA score and APACHE II score were calculated as previously described.
# [2] = tested on: patients without AKI; settings: previous investigators; cited from earlier work
compound,measurement,setting,value
NS(=O)(=O)c1cc(C(=O)O)c(NCc2ccco2)cc1Cl [Furosemide],"Urine volume, Hour 1","[1]; Combined n = 77, furosemide 1.0 or 1.5 mg/kg iv",251 (35.2) ml
same,"Urine volume, Hour 1",[1]; Furosemide Naive n = 29,331 (68.5) ml
same,"Urine volume, Hour 1",[1]; Non-naive N = 48,258 (37.2) ml
same,"Urine volume, Hour 2",[1]; Combined n = 77,296 (35.8) ml
same,"Urine volume, Hour 2",[1]; Furosemide Naive n = 29,348 (66.6) ml
same,"Urine volume, Hour 2",[1]; Non-naive N = 48,264 (40.9) ml
same,"Urine volume, Hour 3",[1]; Combined n = 77,246 (26.6) ml
same,"Urine volume, Hour 3",[1]; Furosemide Naive n = 29,285 (52.1) ml
same,"Urine volume, Hour 3",[1]; Non-naive N = 48,223 (28.6) ml
same,"Urine volume, Hour 4",[1]; Combined n = 77,207 (24.1) ml
same,"Urine volume, Hour 4",[1]; Furosemide Naive n = 29,240 (48.6) ml
same,"Urine volume, Hour 4",[1]; Non-naive N = 48,188 (25.4) ml
same,"Urine volume, Hour 5",[1]; Combined n = 77,175 (18.6) ml
same,"Urine volume, Hour 5",[1]; Furosemide Naive n = 29,204 (35.9) ml
same,"Urine volume, Hour 5",[1]; Non-naive N = 48,157 (22.5) ml
same,"Urine volume, Hour 6",[1]; Combined n = 77,155 (17.4) ml
same,"Urine volume, Hour 6",[1]; Furosemide Naive n = 29,167 (33.6) ml
same,"Urine volume, Hour 6",[1]; Non-naive N = 48,147 (19.6) ml
same,Tolerability / adverse events attributable to the FST,[1],these complications were not observed in this study
same,Tolerability / adverse events attributable to the FST,[1]; listed as furosemide,well tolerated with no episodes of hypotension or any other adverse event deemed attributable to the test
same,Time of maximum urine flow rate (UFR) after FST,[1]; hourly urine output for six hours after iv furosemide,within the first two to three hours
same,Mean UO in response to the challenge,[1]; in 6 hours after FST,over 1.3 liters
same,Time of maximum diuretic effect,[2],within the first three hours
